target: Recombinant human PDK1 enzyme (aa 52-556) (Homo sapiens (Human), UniProt O15530); experiment: PDK1 kinase assay; assay type: biochemical; conditions: in vitro kinase assay, His6-PDK1 (aa 52-556), PDKtide, P33-ATP
Procedure: The activity of the compounds according to the invention on the kinase PDK1 which inhibits the signal transduction pathway is determined in an in vitro kinase assay with recombinantly prepared protein:
Recombinant human PDK1 enzyme (aa 52-556) linked at its N-terminal end to His6 is isolated from baculovirus-infected insect cells. Purified enzyme may be obtained for example from the University of Dundee, Scotland. The following components are combined in a well of a 96-well round-based dish (Greiner bio-one, No. 650101): • 15 μL of compound to be tested in varying concentrations (e.g. starting at 10 μM, and diluted in steps of 1:5) in APT buffer (50 mM Tris/Cl pH 7.5; 0.05% β-mercaptoethanol; 10 mM Mg-acetate; 0.0166% Tween 20; 3.33% DMSO) • 15 μL His6-PDK1 (aa 52-556) 3.33 ng/well) and PDKtide ([…]), synthesised by Pepceuticals Limited, Nottingham, United Kingdom; 25 μM final concentration); His6-PDK1 and PDKtide are together diluted accordingly in assay buffer (50 mM tris pH 7.5, 0.05% β-mercaptoethanol, 10 mM Mg-acetate); PDKtide is present in this mixture as an 83.3 μM solution. These 30 μl are routinely incubated for 30 min at RT. • 20 μL ATP solution (25 μM ATP with 1.0 μCi/well gamma-P33-ATP). The final concentration of Tween 20 is 0.005%.
The reaction is started by adding the ATP solution and the mixture is incubated for 90 min at RT. At the start of the reaction the dishes are shaken gently. The reaction is stopped by the addition of 50 μL/well of 500 mM phosphoric acid (H3PO4) and incubated for about 20 min at RT. The precipitate is transferred by harvesting onto filter plates (96-well microtitre filter plate: UniFilter GF/C; Perkin Elmer; No. 6005174), then washed 6 times with 50 mM H3PO4 and dried at 60° C. Then the plate is stuck down with sealing tape, 25 μL/well of scintillation solution (Microscint 0; Perkin Elmer; No. 6013611) are added and the amount of P33 precipitated is measured using the Wallac Betacounter. The measured data are evaluated using Graphpad Prism software.

Recombinant human PDK1 enzyme (aa 52-556), sequence (O15530 52-556): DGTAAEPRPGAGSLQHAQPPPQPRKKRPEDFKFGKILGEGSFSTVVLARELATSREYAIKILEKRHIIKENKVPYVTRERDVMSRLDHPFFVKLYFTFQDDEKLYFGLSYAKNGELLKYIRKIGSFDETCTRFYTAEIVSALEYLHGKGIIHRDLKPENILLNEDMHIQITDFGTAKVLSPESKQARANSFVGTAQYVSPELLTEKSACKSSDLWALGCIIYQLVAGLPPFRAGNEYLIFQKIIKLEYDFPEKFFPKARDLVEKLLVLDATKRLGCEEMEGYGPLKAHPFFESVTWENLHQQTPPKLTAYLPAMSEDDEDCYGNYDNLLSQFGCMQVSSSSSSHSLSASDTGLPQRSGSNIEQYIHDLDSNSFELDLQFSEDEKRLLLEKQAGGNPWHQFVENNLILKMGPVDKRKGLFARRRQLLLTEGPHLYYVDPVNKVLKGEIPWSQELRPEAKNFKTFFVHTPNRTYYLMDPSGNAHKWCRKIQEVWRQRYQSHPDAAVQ

Compound	IC50 [nM]
C=C(C)c1cnc2ccc(C#CCNC(=O)c3cncn(Cc4ccc(F)c(F)c4)c3=O)cc2n1 [I-69]	64
CN1CCC(Nc2cnc3ccc(C#CCNC(=O)c4cncn(Cc5ccc(F)c(F)c5)c4=O)cc3c2)CC1 [I-70]	1
CCN1CCC(Nc2cnc3ccc(C#CCNC(=O)c4cncn(Cc5ccc(F)c(F)c5)c4=O)cc3c2)CC1 [I-71]	4
CCN1CCC(Nc2cnc3ccc(C#CCNC(=O)c4cccn(Cc5ccc(F)c(F)c5)c4=O)cc3c2)CC1 [I-72]	2
COCCN1CCC(Nc2cnc3ccc(C#CCNC(=O)c4cncn(Cc5ccc(F)c(F)c5)c4=O)cc3c2)CC1 [I-73]	4
COCCN1CCC(Nc2cnc3ccc(C#CCNC(=O)c4cccn(Cc5ccc(F)c(F)c5)c4=O)cc3c2)CC1 [I-74]	8
CCN1CCC(Nc2cnc3ccc(C#CCNC(=O)c4cccn([C@@H](C)c5ccc(F)c(F)c5)c4=O)cc3c2)CC1 [I-75]	1
CCN1CCC(Nc2cnc3ccc(C#CCNC(=O)c4cccn([C@H](CO)c5cccc(F)c5)c4=O)cc3c2)CC1 [I-76]	2
COCCN1CCC(Nc2cnc3ccc(C#CCNC(=O)c4cccn([C@@H](CO)c5ccc(F)c(F)c5)c4=O)cc3c2)CC1 [I-77]	4
COCCN1CCC(Nc2cnc3ccc(C#CCNC(=O)c4cccn([C@@H](C)c5ccc(F)c(F)c5)c4=O)cc3c2)CC1 [I-78]	9
Cc1c(C#CCNC(=O)c2cncn(Cc3ccc(F)c(F)c3)c2=O)ccc2ncc(-c3ccccc3)cc12 [I-79]	80
O=C(NCC#Cc1ccc2ncccc2c1)c1cncn(Cc2ccc(F)c(F)c2)c1=O [I-80]	132
O=C(NCC#Cc1ccc2ncc(-c3ccccc3)cc2c1)c1cncn(Cc2ccc(F)c(F)c2)c1=O [I-81]	66
COC(=O)c1cnc2ccc(C#CCNC(=O)c3cncn(Cc4ccc(F)c(F)c4)c3=O)c(C)c2c1 [I-82]	119
Cc1c(C#CCNC(=O)c2cncn(Cc3ccc(F)c(F)c3)c2=O)ccc2ncc(C(=O)O)cc12 [I-83]	62
O=C(NCC#Cc1ccc2ncc(O)cc2c1)c1cncn(Cc2ccc(F)c(F)c2)c1=O [I-86]	86
O=C(NCC#Cc1ccc2ncc(OC3CCNCC3)cc2c1)c1cncn(Cc2ccc(F)c(F)c2)c1=O [I-87]	23
CN(C)CCCOc1ccnc2ccc(C#CCNC(=O)c3cncn(Cc4ccc(F)c(F)c4)c3=O)cc12 [I-88]	15
CN(C)CCCN(C)c1ccnc2ccc(C#CCNC(=O)c3cncn(Cc4ccc(F)c(F)c4)c3=O)cc12 [I-89]	23

Compound	IC50 [nM]
CN(C)c1ccnc2ccc(C#CCNC(=O)c3cncn(Cc4ccc(F)c(F)c4)c3=O)cc12 [I-90]	110
COc1ccnc2ccc(C#CCNC(=O)c3cncn(Cc4ccc(F)c(F)c4)c3=O)cc12 [I-91]	38
COc1ccnc2ccc(C#CCNC(=O)c3cccn(Cc4ccc(F)c(F)c4)c3=O)cc12 [I-92]	128
CN(C)CCCOc1ccnc2ccc(C#CCNC(=O)c3cccn(Cc4ccc(F)c(F)c4)c3=O)cc12 [I-93]	12
CCOc1ccnc2ccc(C#CCNC(=O)c3cccn(Cc4ccc(F)c(F)c4)c3=O)cc12 [I-94]	55
CCOc1ccnc2ccc(C#CCNC(=O)c3cncn(Cc4ccc(F)c(F)c4)c3=O)cc12 [I-95]	33
CC(C)Oc1ccnc2ccc(C#CCNC(=O)c3cncn(Cc4ccc(F)c(F)c4)c3=O)cc12 [I-97]	38
CN(C)CCOc1ccnc2ccc(C#CCNC(=O)c3cccn(Cc4ccc(F)c(F)c4)c3=O)cc12 [I-98]	25
CN(C)CCOc1ccnc2ccc(C#CCNC(=O)c3cncn(Cc4ccc(F)c(F)c4)c3=O)cc12 [I-99]	36
CN1CCN(CCCOc2ccnc3ccc(C#CCNC(=O)c4cncn(Cc5ccc(F)c(F)c5)c4=O)cc23)CC1 [I-100]	14
CN1CCCC(COc2ccnc3ccc(C#CCNC(=O)c4cccn(Cc5ccc(F)c(F)c5)c4=O)cc23)C1 (centres unmarked) [I-101]	5
CN(C)CC(C)(C)COc1ccnc2ccc(C#CCNC(=O)c3cncn(Cc4ccc(F)c(F)c4)c3=O)cc12 [I-102]	13
CN(C)CC(C)(C)COc1ccnc2ccc(C#CCNC(=O)c3cccn(Cc4ccc(F)c(F)c4)c3=O)cc12 [I-103]	33
CN(C)CC(O)COc1ccnc2ccc(C#CCNC(=O)c3cncn(Cc4ccc(F)c(F)c4)c3=O)cc12 (centres unmarked) [I-104]	71
CN(C)CC(O)COc1ccnc2ccc(C#CCNC(=O)c3cccn(Cc4ccc(F)c(F)c4)c3=O)cc12 (centres unmarked) [I-105]	47
CN1CCC(Oc2ccnc3ccc(C#CCNC(=O)c4cncn(Cc5ccc(F)c(F)c5)c4=O)cc23)C1 (centres unmarked) [I-106]	119
CN1CCC(Oc2ccnc3ccc(C#CCNC(=O)c4cccn(Cc5ccc(F)c(F)c5)c4=O)cc23)C1 (centres unmarked) [I-107]	212
O=C(NCC#Cc1ccc2nccc(OCC3CCCCO3)c2c1)c1cncn(Cc2ccc(F)c(F)c2)c1=O (centres unmarked) [I-108]	116
O=C(NCC#Cc1ccc2nccc(OCC3CCCCO3)c2c1)c1cccn(Cc2ccc(F)c(F)c2)c1=O (centres unmarked) [I-109]	166

Compound	IC50 [nM]
COC(C)CCOc1ccnc2ccc(C#CCNC(=O)c3cccn(Cc4ccc(F)c(F)c4)c3=O)cc12 (centres unmarked) [I-110]	137
CN1CCC(Oc2ccnc3ccc(C#CCNC(=O)c4cncn(Cc5ccc(F)c(F)c5)c4=O)cc23)CC1 [I-111]	29
CN1CCC(Oc2ccnc3ccc(C#CCNC(=O)c4cccn(Cc5ccc(F)c(F)c5)c4=O)cc23)CC1 [I-112]	71
O=C(NCC#Cc1ccc2nccc(OC3CCNCC3)c2c1)c1cncn(Cc2ccc(F)c(F)c2)c1=O [I-113]	15
O=C(NCC#Cc1ccc2nccc(OC3CCNCC3)c2c1)c1cccn(Cc2ccc(F)c(F)c2)c1=O [I-114]	23
O=C(NCC#Cc1ccc2nccc(NC3CC3)c2c1)c1cncn(Cc2ccc(F)c(F)c2)c1=O [I-115]	780
O=C(NCC#Cc1ccc2nccc(NC3CC3)c2c1)c1cccn(Cc2ccc(F)c(F)c2)c1=O [I-116]	1000
CN(C)CCNc1ccnc2ccc(C#CCNC(=O)c3cncn(Cc4ccc(F)c(F)c4)c3=O)cc12 [I-117]	1000
CN(C)CCNc1ccnc2ccc(C#CCNC(=O)c3cccn(Cc4ccc(F)c(F)c4)c3=O)cc12 [I-118]	853
CN(C)CCCNc1ccnc2ccc(C#CCNC(=O)c3cncn(Cc4ccc(F)c(F)c4)c3=O)cc12 [I-119]	554
CN(C)CCCNc1ccnc2ccc(C#CCNC(=O)c3cccn(Cc4ccc(F)c(F)c4)c3=O)cc12 [I-120]	656
O=C(NCC#Cc1ccc2nccc(OCC3CCCO3)c2c1)c1cncn(Cc2ccc(F)c(F)c2)c1=O (centres unmarked) [I-121]	156
O=C(NCC#Cc1ccc2nccc(OCC3CCNC3)c2c1)c1cncn(Cc2ccc(F)c(F)c2)c1=O (centres unmarked) [I-122]	3
O=C(NCC#Cc1ccc2nccc(OCC3CCCNC3)c2c1)c1cncn(Cc2ccc(F)c(F)c2)c1=O (centres unmarked) [I-123]	2
CC(c1ccc(F)c(F)c1)n1cccc(C(=O)NCC#Cc2ccc3nccc(OCCCN(C)C)c3c2)c1=O (centres unmarked) [I-124]	2
CC(c1cc(F)c(F)c(F)c1)n1cccc(C(=O)NCC#Cc2ccc3nccc(OC[C@@H]4CCN(C)C4)c3c2)c1=O (some centres unmarked) [I-125.1]	3
CN(C)CCCOc1ccnc2ccc(C#CCNC(=O)c3cccn(Cc4cc(F)c(F)c(F)c4)c3=O)cc12 [I-125.2]	5
CN(C)CCCCOc1ccnc2ccc(C#CCNC(=O)c3cncn(Cc4ccc(F)c(F)c4)c3=O)cc12 [I-125.3]	5

From patent publication US8575203B2, “Chemical compounds” (Boehringer Ingelheim International GmbH, priority 2010, dated 2013)
